Measurements: ChEMBL document CHEMBL1145769, “Novel openers of Ca2+-dependent large-conductance potassium channels: symmetrical pharmacophore and electrophysiological evaluation of bisphenols” (Bioorg Med Chem Lett, 2003)

Assays:
[1] = pKa value was determined; format: physicochemical
[2] = target: Calcium-activated potassium channel subunit alpha-1 (Homo sapiens) (UniProt Q12791); assay: Maxi-K opening activity on cloned human (hSlo) large- conductance (BK) Ca(2+)-activated K+ channel expressed in Xenopus laevis oocytes at concentration of 20 uM; format: functional, cell-based; details: Oocyte
Sequence of Calcium-activated potassium channel subunit alpha-1 (Homo sapiens) (Q12791 whole entry): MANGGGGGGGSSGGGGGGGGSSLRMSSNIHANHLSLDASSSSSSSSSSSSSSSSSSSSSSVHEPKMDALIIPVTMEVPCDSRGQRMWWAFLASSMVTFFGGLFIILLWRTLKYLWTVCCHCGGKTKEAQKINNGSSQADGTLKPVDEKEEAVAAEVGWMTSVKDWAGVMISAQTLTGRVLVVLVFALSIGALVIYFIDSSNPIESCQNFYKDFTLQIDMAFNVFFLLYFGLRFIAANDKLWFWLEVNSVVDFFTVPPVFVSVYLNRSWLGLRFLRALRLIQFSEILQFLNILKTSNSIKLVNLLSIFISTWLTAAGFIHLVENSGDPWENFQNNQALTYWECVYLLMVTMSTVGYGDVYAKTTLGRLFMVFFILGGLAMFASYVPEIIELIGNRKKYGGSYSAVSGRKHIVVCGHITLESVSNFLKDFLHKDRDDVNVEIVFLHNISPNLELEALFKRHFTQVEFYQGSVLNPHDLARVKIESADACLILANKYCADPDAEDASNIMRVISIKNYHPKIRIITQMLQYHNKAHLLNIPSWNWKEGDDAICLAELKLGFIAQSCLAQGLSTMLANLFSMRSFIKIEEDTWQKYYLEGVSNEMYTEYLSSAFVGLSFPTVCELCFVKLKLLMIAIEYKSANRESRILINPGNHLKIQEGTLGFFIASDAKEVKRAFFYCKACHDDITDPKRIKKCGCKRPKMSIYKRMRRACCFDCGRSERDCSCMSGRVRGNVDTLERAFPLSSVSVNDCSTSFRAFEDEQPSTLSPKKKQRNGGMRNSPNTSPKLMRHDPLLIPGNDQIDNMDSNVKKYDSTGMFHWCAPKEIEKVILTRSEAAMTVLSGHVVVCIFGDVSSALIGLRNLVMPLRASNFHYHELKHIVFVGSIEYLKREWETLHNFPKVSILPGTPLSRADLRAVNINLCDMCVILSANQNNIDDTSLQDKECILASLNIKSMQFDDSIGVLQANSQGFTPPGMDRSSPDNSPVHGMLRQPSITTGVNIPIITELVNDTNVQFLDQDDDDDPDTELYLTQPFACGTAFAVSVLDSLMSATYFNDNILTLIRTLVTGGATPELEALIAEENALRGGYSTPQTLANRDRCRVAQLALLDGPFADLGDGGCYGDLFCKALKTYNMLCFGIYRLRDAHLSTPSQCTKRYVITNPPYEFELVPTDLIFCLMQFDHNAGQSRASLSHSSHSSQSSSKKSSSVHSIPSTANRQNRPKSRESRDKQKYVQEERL

Structure (SMILES): O=C(Nc1cccc(C(F)(F)F)c1)Nc1cc(Cl)ccc1O
- pKa [1]: 9.3
- Control current [2]: 124%

Structure (SMILES): Oc1c(Br)cc(Br)cc1-c1cc(Br)cc(Br)c1O [BROMOPHENE]
- pKa [1]: 6.7
- Control current [2]: 264%

Structure (SMILES): Oc1c(Cl)cccc1Cc1cccc(Cl)c1O
- pKa [1]: 8.2
- Control current [2]: 95.9%

Structure (SMILES): Oc1c(Cl)cc(Cl)cc1Cc1cc(Cl)cc(Cl)c1O
- pKa [1]: 7.7
- Control current [2]: 245%

Structure (SMILES): O=C(Nc1cc(Cl)cc(Cl)c1O)Nc1cc(Cl)cc(Cl)c1O
- pKa [1]: 7.4
- Control current [2]: 196%

Structure (SMILES): O=c1[nH]c2cc(C(F)(F)F)ccc2n1-c1cc(Cl)ccc1O
- pKa [1]: 9.6
- Control current [2]: 132%

Structure (SMILES): CN(C)Cc1cc(Cl)cc(Cc2cc(Cl)cc(CN(C)C)c2O)c1O
- pKa [1]: 9.6
- Control current [2]: 94.7%

Structure (SMILES): O=C(Nc1cc(Cl)ccc1O)Nc1cc(Cl)ccc1O
- pKa [1]: 8.9
- Control current [2]: 150%

Structure (SMILES): Oc1ccc(F)cc1Cc1cc(F)ccc1O
- pKa [1]: 9.7
- Control current [2]: 83.2%

Structure (SMILES): Oc1c(Cl)cc(Cl)c(Cl)c1Cc1c(O)c(Cl)cc(Cl)c1Cl [HEXACHLOROPHENE]
- pKa [1]: 6.6
- Control current [2]: 237%

Structure (SMILES): Oc1ccc(Br)cc1-c1cc(Br)ccc1O
- pKa [1]: 8.6
- Control current [2]: 97%

Structure (SMILES): CCCc1ccc(O)c(-c2cc(CCC)ccc2O)c1
- pKa [1]: 9.3
- Control current [2]: 95.9%

Structure (SMILES): Oc1c(Cl)cc(Cl)cc1Sc1cc(Cl)cc(Cl)c1O [BITHIONOL]
- pKa [1]: 6.3
- Control current [2]: 199%

Structure (SMILES): Oc1ccc(Cl)cc1Cc1cc(Cl)ccc1O [DICHLOROPHEN]
- pKa [1]: 9.3
- Control current [2]: 74.3%

Structure (SMILES): Oc1ccc(F)cc1Sc1cc(F)ccc1O
- pKa [1]: 8.4
- Control current [2]: 98.8%
